Results taken from patent US10287301B2 (Achillion Pharmaceuticals, Inc., priority 2015, dated 2019).
Like-named read-outs stand apart in the source and are kept apart here.

Biological target: Human Factor D (Homo sapiens (Human), UniProt P00746)
Assay: Human Factor D Assay
Type: biochemical
In short: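 First, compound at various concentrations is mixed with 80 nM (final) human serum Factor D in 50 mM Tris, 1M NaCl, pH 7.5 for 5 min at room temperature.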

[1] = Human Factor D assay of Example 8, Table 2, read-out: IC50

Human Factor D, sequence (P00746 26-253): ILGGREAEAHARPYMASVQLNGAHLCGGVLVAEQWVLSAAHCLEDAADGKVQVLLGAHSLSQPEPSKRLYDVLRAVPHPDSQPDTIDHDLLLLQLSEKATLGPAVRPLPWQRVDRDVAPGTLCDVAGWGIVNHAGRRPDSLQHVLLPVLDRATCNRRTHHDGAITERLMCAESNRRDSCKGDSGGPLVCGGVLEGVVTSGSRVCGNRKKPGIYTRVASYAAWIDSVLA

Row | Structure (SMILES) | IC50 [1] | IC50
1 | CC(=O)c1nn(CC(=O)N2C[C@H](F)C[C@H]2C(=O)Nc2cccc(Br)n2)c2ccc(-c3cnc(N)nc3)cc12 [Compound 260, (2S,4R)-1-(2-(3-acetyl-5-(2-aminopyrimidin-5-yl)-1H-indazol-1-yl)acetyl)-N-(6-bromopyridin-2-yl)-4-fluoropyrrolidine-2-carboxamide] | < 1000 nM | –
2 | CC(=O)c1nn(CC(=O)N2C[C@H](F)C[C@H]2C(=O)NC2CCN(C(=O)c3cn[nH]c3)CC2)c2ccc(-c3cnc(C)nc3)cc12 [Compound 261, (2S,4R)-N-(1-(1H-pyrazole-4-carbonyl)piperidin-4-yl)-1-(2-(3-acetyl-5-(2-methylpyrimidin-5-yl)-1H-indazol-1-yl)acetyl)-4-fluoropyrrolidine-2-carboxamide] | – | 1000 to 10000 nM
3 | CC(=O)c1nn(CC(=O)N2C[C@H](F)C[C@H]2C(=O)Nc2cccc(Br)n2)c2ccc(-c3cnc4c(C#N)c(C)nn4c3)cc12 [Compound 262, (2S,4R)-1-(2-(3-acetyl-5-(3-cyano-2-methylpyrazolo[1,5-a]pyrimidin-6-yl)-1H-indazol-1-yl)acetyl)-N-(6-bromopyridin-2-yl)-4-fluoropyrrolidine-2-carboxamide] | < 1000 nM | –
4 | CC(=O)c1nn(CC(=O)N2C[C@H](F)C[C@H]2C(=O)Nc2cccc(Br)n2)c2ccc(-c3cnc4c(C#N)cnn4c3)cc12 [Compound 263, (2S,4R)-1-(2-(3-acetyl-5-(3-cyanopyrazolo[1,5-a]pyrimidin-6-yl)-1H-indazol-1-yl)acetyl)-N-(6-bromopyridin-2-yl)-4-fluoropyrrolidine-2-carboxamide] | < 1000 nM | –
5 | CC(=O)c1nn(CC(=O)N2C[C@H](F)C[C@H]2C(=O)Nc2cccc(C(F)(F)F)n2)c2ccc(-c3cnc4cc(C)nn4c3)cc12 [Compound 264, (2S,4R)-1-(2-(3-acetyl-5-(2-methylpyrazolo[1,5-a]pyrimidin-6-yl)-1H-indazol-1-yl)acetyl)-4-fluoro-N-(6-(trifluoromethyl)pyridin-2-yl)pyrrolidine-2-carboxamide] | < 1000 nM | –
6 | CC(=O)c1nn(CC(=O)N2C[C@H](F)C[C@H]2C(=O)Nc2cccc(C#N)n2)c2ccc(-c3cnc4cc(C)nn4c3)cc12 [Compound 265, (2S,4R)-1-(2-(3-acetyl-5-(2-methylpyrazolo[1,5-a]pyrimidin-6-yl)-1H-indazol-1-yl)acetyl)-N-(6-cyanopyridin-2-yl)-4-fluoropyrrolidine-2-carboxamide] | < 1000 nM | –
7 | CC(=O)c1nn(CC(=O)N2C[C@H](F)C[C@H]2C(=O)Nc2cccc(Br)n2)c2ccc(-c3cnc(C)nc3C)cc12 [Compound 266, (2S,4R)-1-(2-(3-acetyl-5-(2,4-dimethylpyrimidin-5-yl)-1H-indazol-1-yl)acetyl)-N-(6-bromopyridin-2-yl)-4-fluoropyrrolidine-2-carboxamide] | < 1000 nM | –
8 | CCc1cn(CC(=O)N2NCCC2C(=O)Nc2cccc(-c3ccccc3Cl)c2F)c2ccc(-c3cnc(C)nc3)cc12 (stereo not shown) [Compound 267, N-(2′-chloro-2-fluorobiphenyl-3-yl)-2-(2-(3-ethyl-5-(2-methylpyrimidin-5-yl)-1H-indol-1-yl)acetyl)pyrazolidine-3-carboxamide] | – | 1000 to 10000 nM
9 | CC(=O)c1nn(CC(=O)N2C[C@H](F)C[C@H]2C(=O)Nc2cccc(Br)n2)c2ccc(-c3cnc4c(C)cnn4c3)cc12 [Compound 268, (2S,4R)-1-(2-(3-acetyl-5-(3-methylpyrazolo[1,5-a]pyrimidin-6-yl)-1H-indazol-1-yl)acetyl)-N-(6-bromopyridin-2-yl)-4-fluoropyrrolidine-2-carboxamide] | < 1000 nM | –
10 | COCCNc1ncc(-c2ccc3c(c2)c(C(C)=O)nn3CC(=O)N2C[C@H](F)C[C@H]2C(=O)Nc2cccc(Br)n2)cn1 [Compound 269, (2S,4R)-1-(2-(3-acetyl-5-(2-(2-methoxyethylamino)pyrimidin-5-yl)-1H-indazol-1-yl)acetyl)-N-(6-bromopyridin-2-yl)-4-fluoropyrrolidine-2-carboxamide] | < 1000 nM | –
